Literature values as cited in patent US20120259389A1, “TREATMENT OF POSTPRANDIAL HYPERGLYCEMIA BY GASTRIC ELECTRICAL STIMULATION” (priority 2009, published 2012).

Tested on: ZDF rats
Conditions: Type II diabetic ZDF rats; 300 mg/kg/day for 28 days; reported by Uhles et al. 2009

CN(C)C(=N)N=C(N)N [Metformin]
reduction in mean change in blood glucose AUC: 21%
